Activity calls are given as the source filed them.
Experiments:
[1] = biological target: Transitional endoplasmic reticulum ATPase (Homo sapiens, UniProt P55072); assay: Luminescence dose response biochemical high throughput screening assay for inhibitors of the p97 ATPase: synthesized compounds. [Related pubchem assays: 1481, 1517 ]
[2] = biological target: Transitional endoplasmic reticulum ATPase (Homo sapiens, UniProt P55072, C522A); assay: Luminescence counterscreen assay for p97 inhibitors: dose response biochemical high throughput screening assay to identify inhibitors of the C522A mutant p97 ATPase: synthesized compounds. [Related pubchem assays: 1481, 1517, 1551 ]
[3] = biological target: Serine/threonine-protein phosphatase (Homo sapiens, UniProt Q9BPW0); assay: PP5 phosphatase inhibitors, dose response, biochemical, fluorescence (AID 2395)
[4] = biological target: Serine/threonine-protein phosphatase PP1-alpha catalytic subunit (Homo sapiens, UniProt P62136); assay: PP1 phosphatase inhibitors, dose response, biochemical, fluorescence (AID 2394)
[5] = biological target: T1, Replicative DNA helicase DnaB (Mycobacterium tuberculosis, UniProt P9WMR3); assay: DnaB intein splicing inhibitors, dose response, biochemical, cell-free fluorescence (AID 449749); type: functional
T1 sequence (P9WMR3 whole entry): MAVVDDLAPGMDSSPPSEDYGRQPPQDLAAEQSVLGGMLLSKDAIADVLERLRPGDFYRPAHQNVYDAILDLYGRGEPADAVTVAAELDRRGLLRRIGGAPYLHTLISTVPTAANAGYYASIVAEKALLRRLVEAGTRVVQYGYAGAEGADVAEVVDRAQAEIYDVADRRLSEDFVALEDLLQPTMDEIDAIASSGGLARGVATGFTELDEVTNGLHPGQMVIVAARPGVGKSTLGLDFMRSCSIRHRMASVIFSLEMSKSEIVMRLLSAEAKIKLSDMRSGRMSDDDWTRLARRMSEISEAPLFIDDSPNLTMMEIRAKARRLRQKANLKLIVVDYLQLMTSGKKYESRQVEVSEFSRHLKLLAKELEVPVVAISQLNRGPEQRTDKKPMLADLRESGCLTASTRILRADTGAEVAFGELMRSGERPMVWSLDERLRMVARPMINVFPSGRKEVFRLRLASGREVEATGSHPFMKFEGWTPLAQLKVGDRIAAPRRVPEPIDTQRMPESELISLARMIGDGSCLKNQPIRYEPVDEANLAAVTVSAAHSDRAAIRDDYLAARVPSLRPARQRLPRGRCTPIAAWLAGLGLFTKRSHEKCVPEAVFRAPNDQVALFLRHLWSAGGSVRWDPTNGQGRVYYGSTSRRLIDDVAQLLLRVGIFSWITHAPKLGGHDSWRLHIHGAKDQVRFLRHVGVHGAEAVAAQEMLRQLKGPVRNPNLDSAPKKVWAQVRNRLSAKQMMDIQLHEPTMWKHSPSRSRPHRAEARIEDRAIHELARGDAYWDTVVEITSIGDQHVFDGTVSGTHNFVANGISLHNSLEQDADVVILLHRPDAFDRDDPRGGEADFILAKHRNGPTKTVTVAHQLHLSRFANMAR

Protein RecA = biological target: T2, Protein RecA (Mycobacterium tuberculosis, UniProt P9WHJ3); assay: Fluorescence Cell-Free Homogeneous Dose Retest to Identify Inhibitors of RecA-Intein Splicing Activity. [Related pubchem assays (depositor defined):AID2097, AID2223, AID489010, AID492950]; type: functional
T2 sequence (P9WHJ3 whole entry): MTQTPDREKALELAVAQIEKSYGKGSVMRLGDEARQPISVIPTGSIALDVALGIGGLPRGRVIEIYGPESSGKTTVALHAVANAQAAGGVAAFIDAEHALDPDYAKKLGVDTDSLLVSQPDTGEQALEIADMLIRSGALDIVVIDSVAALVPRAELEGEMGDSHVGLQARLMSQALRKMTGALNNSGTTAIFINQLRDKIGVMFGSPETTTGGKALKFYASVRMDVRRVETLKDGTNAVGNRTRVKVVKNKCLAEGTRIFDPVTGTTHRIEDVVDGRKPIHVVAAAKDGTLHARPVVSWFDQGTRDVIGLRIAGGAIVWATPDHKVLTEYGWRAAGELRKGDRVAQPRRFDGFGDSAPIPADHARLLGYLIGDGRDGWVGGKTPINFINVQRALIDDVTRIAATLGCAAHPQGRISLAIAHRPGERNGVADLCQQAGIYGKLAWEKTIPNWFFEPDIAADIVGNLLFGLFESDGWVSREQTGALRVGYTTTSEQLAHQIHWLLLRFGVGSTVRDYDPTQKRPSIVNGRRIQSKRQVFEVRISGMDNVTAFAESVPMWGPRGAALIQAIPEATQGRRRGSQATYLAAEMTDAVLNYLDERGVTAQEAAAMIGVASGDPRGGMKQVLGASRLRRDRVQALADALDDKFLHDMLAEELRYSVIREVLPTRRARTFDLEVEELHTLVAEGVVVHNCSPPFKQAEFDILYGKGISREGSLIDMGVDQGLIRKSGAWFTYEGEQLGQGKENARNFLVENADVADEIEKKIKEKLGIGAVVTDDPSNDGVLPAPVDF

[6] = Luminescence-based dose response cell-based high throughput screening assay for cytotoxic compounds using the IEC-6 intestinal epithelial cell line. [Related pubchem assays: 1858 (Summary AID.), 1825 (Counterscreen.), 1907 (Confirmation screen.)]; type: functional
[7] = biological target: T3, Ubiquitin-conjugating enzyme E2 N (Homo sapiens, UniProt P61088); type: functional;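 note: Dose-response confirmation in a TR-FRET assay detecting UBC13-driven polyubiquitin chain formation, inhibition measured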
T3 sequence (P61088 whole entry): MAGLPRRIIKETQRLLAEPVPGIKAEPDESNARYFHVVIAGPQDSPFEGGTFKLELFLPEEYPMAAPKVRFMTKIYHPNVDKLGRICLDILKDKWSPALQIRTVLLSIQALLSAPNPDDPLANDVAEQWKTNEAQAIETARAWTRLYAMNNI

[8] = biological target: Sphingosine 1-phosphate receptor 2 (Homo sapiens, UniProt O95136); assay: Dose Response Cell Based Assay for Agonists of the S1P2 Receptor of Purchased Analogues. [Related pubchem assays: 729, 843, 854, 736 ]; type: functional
[9] = Shn3 3'UTR reporter inhibitors, dose response, cell-based, Clone20 osteoblasts, firefly luciferase, cherry-picked (AID 624132); type: functional;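 note: firefly luciferase luminescence from reporter carrying the Shn3 3'UTR in osteoblasts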
[10] = biological target: Potassium voltage-gated channel subfamily KQT member 2 (Rattus norvegicus, UniProt O88943, W236L); assay: KCNQ2 channel potentiators, dose response, mechanism study for KCNQ2 potentiator project, cell-based, automated electrophysiology (AID 2603); type: functional
[11] = control 3'UTR Renilla luciferase suppression, dose response, counter-screen for Shn3 inhibitor project, cell-based, Clone20-Shn3RL, cherry-picked (AID 624133); type: functional
[12] = biological target: T4, Hepatocyte nuclear factor 4-alpha (Homo sapiens, UniProt P41235); type: functional, cell-based;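 note: biochemical luminescence-based dose-response counterscreen measuring inhibition of HNF4 dimerization, run alongside a screen for blockers of ABHD5–perilipin-5 interaction; split luciferase complementation of HNF4 fusion proteins in cell lysate measuring dimerization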
T4 sequence (P41235 whole entry): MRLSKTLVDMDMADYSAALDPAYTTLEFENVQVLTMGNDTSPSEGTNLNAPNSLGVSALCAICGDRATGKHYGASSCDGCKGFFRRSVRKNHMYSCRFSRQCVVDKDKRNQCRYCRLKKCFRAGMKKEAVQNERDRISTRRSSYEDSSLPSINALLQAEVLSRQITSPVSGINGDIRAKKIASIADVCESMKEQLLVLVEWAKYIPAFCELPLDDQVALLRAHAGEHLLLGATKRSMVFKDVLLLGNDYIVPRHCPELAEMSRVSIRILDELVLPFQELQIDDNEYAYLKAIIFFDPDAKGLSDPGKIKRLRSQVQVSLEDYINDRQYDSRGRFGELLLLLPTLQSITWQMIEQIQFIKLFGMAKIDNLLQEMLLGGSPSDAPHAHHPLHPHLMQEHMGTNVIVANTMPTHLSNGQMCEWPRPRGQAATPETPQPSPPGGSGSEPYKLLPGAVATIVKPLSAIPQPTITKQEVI

[13] = HepG2 cell cytotoxicity, dose response, cytotoxicity control for Shn3 inhibitor project, CellTiter-Glo, cherry-picked (AID 624134); type: functional, cell-based
[14] = M. tuberculosis H37Rv growth inhibitors, H37Rv strain (AID 1626); type: functional
[15] = growth suppression of PTEN-null colon cells, dose response, cell-based, HCT116 PTEN knockout (AID 1047); type: functional;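 note: HCT116 colon tumor cells with PTEN knocked out; cells exposed to compound for 60 hours before readout; potency for loss of cell viability measured by luminescence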
[16] = growth suppression of beta-catenin-knockout colon cells, dose response, cell-based, HCT116, human colon tumor (AID 1045); type: functional;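 note: HCT116 colon tumor cells with beta catenin knocked out; cells exposed to compound for 60 hours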
[17] = biological target: T5, Endoribonuclease toxin MazF (Escherichia coli K-12, UniProt P0AE70); assay: MazF toxin RNase activators, dose response, biochemical, fluorescence, single-stranded RNA substrate, uHTS hits (AID 588481); type: functional
T5 sequence (P0AE70 whole entry): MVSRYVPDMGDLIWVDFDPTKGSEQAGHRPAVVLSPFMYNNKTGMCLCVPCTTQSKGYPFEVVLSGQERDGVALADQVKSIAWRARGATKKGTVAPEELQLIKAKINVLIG

BJ [18] = assay: cytotoxicity toward BJ-TERT-LT-ST fibroblasts, dose response, cell-based, RAS-independent, luminescence (AID 1935); type: functional; conditions: Homo sapiens;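 note: BJ fibroblasts immortalized with TERT plus LT and ST oncogenes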
BJ [19] = assay: cells; type: functional, cell-based; conditions: Homo sapiens
Vero [20] = assay: cells; type: functional; conditions: Chlorocebus sabaeus
[21] = biological target: T5, Endoribonuclease toxin MazF; assay: fluorescent RNA oligo signal without MazF, dose response, counter-screen for MazEF activator project, biochemical, fluorescence, single-stranded RNase substrate (AID 588502); type: functional
BJ [22] = assay: cytotoxicity toward BJ-TERT fibroblasts, dose response, cell-based, RAS-independent, luminescence (AID 1933); type: functional; conditions: Homo sapiens
Vero [23] = assay: cells; type: functional, cell-based; conditions: Chlorocebus sabaeus
[24] = cytotoxicity toward DRD oncogenic fibroblasts, dose response, cell-based, non-viral oncogenic, luminescence (AID 1934); type: functional; conditions: Homo sapiens
[25] = Luminescence Cell-Based Dose Retest to Confirm Inhibitors of Cancer Stem Cells. [Related pubchem assays (depositor defined):AID2717, AID2721]; type: functional; conditions: Homo sapiens
Nonstructural protein 1 = Nonstructural protein 1 (Influenza A virus, UniProt Q194T2); type: functional, Influenza A virus (A/California/07/2009(H1N1))
Genome polyprotein = Genome polyprotein (dengue virus type 2, UniProt P29990); assay: Dengue-2 NS5 methyltransferase inhibitors, primary screen, biochemical, confirmation dose response (AID 588689); type: functional
[26] = biological target: T6, Mannose-6-phosphate isomerase (Homo sapiens, UniProt P34949); assay: human PMI inhibitors, high substrate, primary screen, biochemical, fluorescence intensity, high mannose 6-phosphate (AID 1220)
T6 sequence (P34949 whole entry): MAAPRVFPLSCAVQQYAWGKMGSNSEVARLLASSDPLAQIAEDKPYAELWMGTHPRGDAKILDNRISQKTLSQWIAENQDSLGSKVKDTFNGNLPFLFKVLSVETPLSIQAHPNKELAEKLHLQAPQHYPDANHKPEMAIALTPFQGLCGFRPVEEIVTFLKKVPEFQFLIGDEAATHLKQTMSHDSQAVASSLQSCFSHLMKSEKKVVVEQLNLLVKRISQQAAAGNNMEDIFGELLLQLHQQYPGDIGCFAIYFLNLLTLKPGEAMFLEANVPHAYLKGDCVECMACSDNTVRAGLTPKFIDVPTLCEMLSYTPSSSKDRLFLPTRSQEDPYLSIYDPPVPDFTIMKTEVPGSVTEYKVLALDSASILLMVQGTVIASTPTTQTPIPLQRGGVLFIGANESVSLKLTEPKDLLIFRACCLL

[27] = cytotoxicity in HPDE-C7 cells, cell-based, fluorescence, HTS (AID 430); type: functional; conditions: Homo sapiens
[28] = biological target: T6, Mannose-6-phosphate isomerase; assay: inhibitors of human PMI, primary screen, biochemical, fluorescence intensity, coupled assay (AID 1209)
[29] = cytotoxicity in KRAS-transformed pancreatic duct cells, primary screen, cell-based, fluorescence, HTS (AID 431); type: functional; conditions: Homo sapiens;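 note: cell line used: HPDE-C7K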

Sequence of Sphingosine 1-phosphate receptor 2 (O95136 whole entry): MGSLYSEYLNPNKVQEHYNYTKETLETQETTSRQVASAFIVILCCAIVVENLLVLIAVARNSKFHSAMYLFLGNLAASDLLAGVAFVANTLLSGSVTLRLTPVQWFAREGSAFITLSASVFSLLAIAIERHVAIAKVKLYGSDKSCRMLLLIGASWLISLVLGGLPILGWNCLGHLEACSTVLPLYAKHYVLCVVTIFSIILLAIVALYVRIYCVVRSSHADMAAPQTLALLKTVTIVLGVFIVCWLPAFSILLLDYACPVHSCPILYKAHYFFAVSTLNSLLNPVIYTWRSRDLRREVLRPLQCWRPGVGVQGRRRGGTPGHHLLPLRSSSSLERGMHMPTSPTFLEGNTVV
Sequence of Genome polyprotein (P29990 2492-3391 limits assumed): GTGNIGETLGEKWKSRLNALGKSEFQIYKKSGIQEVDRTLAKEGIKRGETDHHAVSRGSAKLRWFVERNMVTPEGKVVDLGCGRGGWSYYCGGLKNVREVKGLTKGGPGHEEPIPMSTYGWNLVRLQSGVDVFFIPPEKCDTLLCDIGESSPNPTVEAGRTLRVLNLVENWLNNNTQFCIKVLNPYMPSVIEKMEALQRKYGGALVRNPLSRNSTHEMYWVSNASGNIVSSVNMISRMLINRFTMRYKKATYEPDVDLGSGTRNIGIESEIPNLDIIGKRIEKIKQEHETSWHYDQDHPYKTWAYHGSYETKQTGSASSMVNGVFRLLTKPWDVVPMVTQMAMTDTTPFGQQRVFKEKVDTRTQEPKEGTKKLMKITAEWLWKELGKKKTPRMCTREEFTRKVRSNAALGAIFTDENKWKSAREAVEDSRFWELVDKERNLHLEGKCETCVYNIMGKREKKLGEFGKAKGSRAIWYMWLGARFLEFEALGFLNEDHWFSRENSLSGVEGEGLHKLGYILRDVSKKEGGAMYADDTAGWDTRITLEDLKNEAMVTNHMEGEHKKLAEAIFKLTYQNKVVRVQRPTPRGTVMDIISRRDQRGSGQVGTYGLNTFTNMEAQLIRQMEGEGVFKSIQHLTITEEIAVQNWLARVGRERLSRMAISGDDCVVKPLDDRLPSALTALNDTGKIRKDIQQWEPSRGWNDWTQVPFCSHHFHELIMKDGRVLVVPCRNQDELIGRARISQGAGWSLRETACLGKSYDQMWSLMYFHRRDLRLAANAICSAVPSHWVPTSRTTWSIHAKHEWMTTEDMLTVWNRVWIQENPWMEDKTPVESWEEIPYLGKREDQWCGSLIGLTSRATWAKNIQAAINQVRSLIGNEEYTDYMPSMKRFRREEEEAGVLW
Sequence of Transitional endoplasmic reticulum ATPase (Homo sapiens, UniProt P55072, C522A) (P55072 2-806 C522A limits assumed): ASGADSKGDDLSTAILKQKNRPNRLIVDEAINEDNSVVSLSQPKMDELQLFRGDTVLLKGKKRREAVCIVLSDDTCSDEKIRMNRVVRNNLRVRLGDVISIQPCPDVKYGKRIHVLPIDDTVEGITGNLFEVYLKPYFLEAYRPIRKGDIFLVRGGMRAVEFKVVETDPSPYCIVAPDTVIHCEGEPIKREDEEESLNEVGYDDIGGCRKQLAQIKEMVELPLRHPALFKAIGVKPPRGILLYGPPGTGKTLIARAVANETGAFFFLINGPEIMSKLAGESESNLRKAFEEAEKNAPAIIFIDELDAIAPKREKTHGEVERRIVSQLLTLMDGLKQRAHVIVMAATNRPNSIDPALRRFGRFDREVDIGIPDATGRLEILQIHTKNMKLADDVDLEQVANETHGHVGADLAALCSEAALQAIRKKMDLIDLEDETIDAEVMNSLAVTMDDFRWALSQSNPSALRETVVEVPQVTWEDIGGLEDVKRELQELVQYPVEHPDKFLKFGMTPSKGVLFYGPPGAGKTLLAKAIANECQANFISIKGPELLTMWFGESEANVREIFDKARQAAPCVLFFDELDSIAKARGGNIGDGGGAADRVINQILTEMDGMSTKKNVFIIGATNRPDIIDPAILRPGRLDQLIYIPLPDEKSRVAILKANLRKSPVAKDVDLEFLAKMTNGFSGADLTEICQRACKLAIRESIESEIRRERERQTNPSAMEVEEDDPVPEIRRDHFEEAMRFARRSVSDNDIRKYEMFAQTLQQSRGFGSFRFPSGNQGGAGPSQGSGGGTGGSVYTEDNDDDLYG
Sequence of Serine/threonine-protein phosphatase PP1-alpha catalytic subunit (P62136 whole entry): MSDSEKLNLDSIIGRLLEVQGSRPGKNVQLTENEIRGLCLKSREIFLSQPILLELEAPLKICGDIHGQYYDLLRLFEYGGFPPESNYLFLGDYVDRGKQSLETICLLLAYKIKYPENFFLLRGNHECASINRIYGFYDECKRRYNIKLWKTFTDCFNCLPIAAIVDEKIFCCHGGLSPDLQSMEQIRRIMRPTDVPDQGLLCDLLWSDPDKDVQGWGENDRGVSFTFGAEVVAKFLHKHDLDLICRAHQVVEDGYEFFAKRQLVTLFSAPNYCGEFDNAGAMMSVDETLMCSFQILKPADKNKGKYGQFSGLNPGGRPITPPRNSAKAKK
Sequence of Transitional endoplasmic reticulum ATPase (Homo sapiens, UniProt P55072) (P55072 whole entry): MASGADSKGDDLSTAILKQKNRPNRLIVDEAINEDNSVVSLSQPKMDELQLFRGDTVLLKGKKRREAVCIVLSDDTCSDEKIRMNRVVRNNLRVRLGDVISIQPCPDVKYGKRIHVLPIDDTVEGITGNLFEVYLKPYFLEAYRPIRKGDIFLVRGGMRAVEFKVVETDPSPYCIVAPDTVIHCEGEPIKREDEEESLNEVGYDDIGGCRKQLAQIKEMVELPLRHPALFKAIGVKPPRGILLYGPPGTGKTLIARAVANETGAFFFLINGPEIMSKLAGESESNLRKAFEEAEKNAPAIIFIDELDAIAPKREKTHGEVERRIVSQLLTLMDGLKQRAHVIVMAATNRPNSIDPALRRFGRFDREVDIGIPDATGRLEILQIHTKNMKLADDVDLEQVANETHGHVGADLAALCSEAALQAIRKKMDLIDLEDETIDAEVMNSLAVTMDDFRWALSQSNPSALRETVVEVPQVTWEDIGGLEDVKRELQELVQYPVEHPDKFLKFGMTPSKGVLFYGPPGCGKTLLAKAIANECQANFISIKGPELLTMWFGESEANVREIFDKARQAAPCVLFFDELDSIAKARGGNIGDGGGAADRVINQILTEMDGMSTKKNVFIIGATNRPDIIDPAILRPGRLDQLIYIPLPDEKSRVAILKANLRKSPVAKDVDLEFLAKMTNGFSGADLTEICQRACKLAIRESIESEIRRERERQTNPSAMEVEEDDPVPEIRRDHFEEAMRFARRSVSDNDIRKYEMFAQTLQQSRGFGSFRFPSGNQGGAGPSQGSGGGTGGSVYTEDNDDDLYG
Sequence of Potassium voltage-gated channel subfamily KQT member 2 (O88943 whole entry W236L): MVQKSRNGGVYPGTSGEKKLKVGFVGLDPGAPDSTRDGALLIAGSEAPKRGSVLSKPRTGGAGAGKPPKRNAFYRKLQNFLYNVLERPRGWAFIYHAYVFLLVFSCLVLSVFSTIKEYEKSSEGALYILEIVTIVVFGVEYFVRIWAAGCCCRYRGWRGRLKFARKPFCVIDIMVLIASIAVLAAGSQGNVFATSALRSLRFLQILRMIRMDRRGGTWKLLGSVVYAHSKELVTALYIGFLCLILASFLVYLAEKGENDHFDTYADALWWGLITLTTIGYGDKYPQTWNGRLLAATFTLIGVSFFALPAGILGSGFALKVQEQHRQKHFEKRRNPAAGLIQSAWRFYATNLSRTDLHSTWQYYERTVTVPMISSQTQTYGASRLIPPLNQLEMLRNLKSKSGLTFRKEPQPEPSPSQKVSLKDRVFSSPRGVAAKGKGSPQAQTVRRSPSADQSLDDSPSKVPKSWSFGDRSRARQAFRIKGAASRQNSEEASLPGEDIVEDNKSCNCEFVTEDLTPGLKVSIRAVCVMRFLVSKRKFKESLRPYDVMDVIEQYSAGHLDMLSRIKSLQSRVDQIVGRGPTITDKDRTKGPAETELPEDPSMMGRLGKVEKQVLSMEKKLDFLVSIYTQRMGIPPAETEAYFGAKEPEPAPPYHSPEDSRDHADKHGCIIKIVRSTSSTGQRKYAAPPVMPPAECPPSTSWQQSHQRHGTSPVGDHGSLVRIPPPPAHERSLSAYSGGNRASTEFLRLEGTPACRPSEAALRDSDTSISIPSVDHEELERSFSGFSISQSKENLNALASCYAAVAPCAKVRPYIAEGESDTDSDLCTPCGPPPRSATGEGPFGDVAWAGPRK
Sequence of Nonstructural protein 1 (Q194T2 whole entry): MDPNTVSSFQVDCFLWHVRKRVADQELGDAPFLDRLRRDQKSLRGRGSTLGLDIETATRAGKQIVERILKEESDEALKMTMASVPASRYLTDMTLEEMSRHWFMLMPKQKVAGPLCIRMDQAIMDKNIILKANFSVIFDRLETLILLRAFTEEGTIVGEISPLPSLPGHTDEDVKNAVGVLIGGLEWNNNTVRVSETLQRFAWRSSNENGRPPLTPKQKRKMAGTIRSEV
Sequence of Serine/threonine-protein phosphatase (Q9BPW0 whole entry): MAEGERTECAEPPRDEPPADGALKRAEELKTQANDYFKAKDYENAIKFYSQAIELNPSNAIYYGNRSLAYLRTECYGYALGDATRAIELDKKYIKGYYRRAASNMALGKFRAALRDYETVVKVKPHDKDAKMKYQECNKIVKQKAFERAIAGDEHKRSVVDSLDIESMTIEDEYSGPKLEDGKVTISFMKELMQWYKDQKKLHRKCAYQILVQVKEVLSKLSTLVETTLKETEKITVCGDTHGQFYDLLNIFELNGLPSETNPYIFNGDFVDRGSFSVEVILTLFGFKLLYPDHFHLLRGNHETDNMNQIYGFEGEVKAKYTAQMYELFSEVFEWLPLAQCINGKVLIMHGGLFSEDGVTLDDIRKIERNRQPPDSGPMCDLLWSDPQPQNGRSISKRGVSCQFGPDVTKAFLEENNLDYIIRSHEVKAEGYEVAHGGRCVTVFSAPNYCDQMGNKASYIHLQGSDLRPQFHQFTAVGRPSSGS

N#Cc1ccc(Nc2nc(-c3ccc(O)cc3O)cs2)cc1
IC50 [1]: 4.71 µM (active)
IC50 [2]: > 50 µM (not active)

CCOC(=O)c1nn(-c2ccc(C)cc2)c(=O)c2c(N)scc12
IC50 [3]: 9.99 µM (active)
IC50 [4]: > 67 µM (not active)
AC50 [5]: 89.9 µM (active)
EC50 (Protein RecA): 11.4 µM (active)

CCCC[C@H](CN[C@@H](CNC)[C@H](C)CC)NCCC12CCC(CC1)C2
IC50 [6]: 6.54 µM (active)
IC50 [7]: > 20 µM (inactive)

Cc1cc(C(=O)COC(=O)c2ccco2)c(C)n1Cc1ccccc1
EC50 [8]: > 30 µM (not active)

Cc1nnc(NC(=O)c2nc(S(=O)(=O)Cc3ccccc3C)ncc2Cl)s1
AC50 [9]: 0.812 µM (active)
EC50 [10]: 692 µM (active)
AC50 [11]: 14.5 µM (active)
AC50 [5]: > 380 µM (inactive)
IC50 [12]: 4.41 µM (active)
EC50 (Protein RecA): > 380 µM (inactive)
AC50 [13]: 57 µM (active)

Cc1cccc(-n2c(/C=C/c3ccc([N+](=O)[O-])o3)nc3ccccc3c2=O)c1
IC50 [14]: > 100 µM (active)
EC50 [15]: 0.552 µM (active)
EC50 [16]: 0.61 µM (active)
EC50 [17]: > 99 µM (inactive)
EC50 (BJ [18]): 3.69 µM (inconclusive)
EC50 (BJ [19]): 4.86 µM (inconclusive)
CC50 (Vero [20]): > 25 µM (active)
EC50 [21]: 8.27 µM (active)
EC50 (BJ [22]): 5.28 µM (inconclusive)
IC50 (Vero [23]): 10.8 µM (active)
EC50 [24]: 5.82 µM (active)
AC50 [25]: 1.72 µM (active)

Cc1coc2c(O)cc3c(c12)OC1(N2CCCCC2)C(=O)NCCCC31 (centres undefined)
IC50 (Nonstructural protein 1): > 100 µM (active)
IC50 (Genome polyprotein): 27.4 µM (active)
IC50 [26]: > 50 µM (not active)
EC50 [27]: 11 µM (active)
IC50 [28]: 35.2 µM (active)
EC50 [29]: 11.3 µM (active)
